Measurements reported in article PMC11480511 (Scientific Reports, 2024).
In brackets after ≈: the same amount, converted by molar mass. Several values for one entry are separate records, joined by “and”; a condition that tells them apart may be missing. Identical values can stand only once. Like-named read-outs stand apart in the source and are kept apart here.

Legend:
[1] = test system: CCRF-CEM; assay: NCI single-dose growth inhibition screen; type: cell-based; settings: Homo sapiens; Leukemia CCRF-CEM; single dose 10^−5 M
[2] = test system: MOLT-4; assay: NCI single-dose growth inhibition screen; type: cell-based; settings: Homo sapiens; Leukemia MOLT-4; single dose 10^−5 M
[3] = test system: RPMI-8226; assay: NCI single-dose growth inhibition screen; type: cell-based; settings: Homo sapiens; Leukemia RPMI-8226; single dose 10^−5 M
[4] = test system: SR; assay: NCI single-dose growth inhibition screen; type: cell-based; settings: Homo sapiens; Leukemia SR; single dose 10^−5 M
[5] = test system: EKVX; assay: NCI single-dose growth inhibition screen; type: cell-based; settings: Homo sapiens; Non-Small Cell Lung Cancer EKVX; single dose 10^−5 M
[6] = test system: HOP-92; assay: NCI single-dose growth inhibition screen; type: cell-based; settings: Homo sapiens; Non-Small Cell Lung Cancer HOP-92; single dose 10^−5 M
[7] = test system: NCI-H23; assay: NCI single-dose growth inhibition screen; type: cell-based; settings: Homo sapiens; Non-Small Cell Lung Cancer NCI-H23; single dose 10^−5 M
[8] = test system: NCI-H460; assay: NCI single-dose growth inhibition screen; type: cell-based; settings: Homo sapiens; Non-Small Cell Lung Cancer NCI-H460; single dose 10^−5 M
[9] = test system: HCT-116; assay: NCI single-dose growth inhibition screen; type: cell-based; settings: Homo sapiens; Colon Cancer HCT-116; single dose 10^−5 M
[10] = test system: SF-268; assay: NCI single-dose growth inhibition screen; type: cell-based; settings: Homo sapiens; CNS Cancer SF-268; single dose 10^−5 M
[11] = test system: SF-539; assay: NCI single-dose growth inhibition screen; type: cell-based; settings: Homo sapiens; CNS Cancer SF-539; single dose 10^−5 M
[12] = test system: SNB-19; assay: NCI single-dose growth inhibition screen; type: cell-based; settings: Homo sapiens; CNS Cancer SNB-19; single dose 10^−5 M
[13] = test system: SNB-75; assay: NCI single-dose growth inhibition screen; type: cell-based, human; settings: Homo sapiens, SNB-75, CNS Cancer SNB-75; single dose 10^−5 M
[14] = test system: LOX IMVI; assay: NCI single-dose growth inhibition screen; type: cell-based, human; settings: Melanoma LOX IMVI, single dose 10^−5 M; for inhibition at 10 µM: Homo sapiens, LOX IMVI
[15] = test system: MALME-3 M; assay: NCI single-dose growth inhibition screen; type: cell-based; settings: Homo sapiens; Melanoma MALME-3 M; single dose 10^−5 M
[16] = test system: M14; assay: NCI single-dose growth inhibition screen; type: cell-based; settings: Homo sapiens; Melanoma M14; single dose 10^−5 M
Method in brief: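 Single dose of 10^−5 M tested per NCI protocols across the 60-cell-line human tumour panel. Values reported as percent growth inhibition.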

[17] = test system: UACC-62; assay: NCI single-dose growth inhibition screen; type: cell-based; settings: Homo sapiens; Melanoma UACC-62; single dose 10^−5 M
[18] = test system: OVCAR-8; assay: NCI single-dose growth inhibition screen; type: cell-based; settings: Homo sapiens; Ovarian Cancer OVCAR-8; single dose 10^−5 M
[19] = test system: 786-0; assay: NCI single-dose growth inhibition screen; type: cell-based; settings: Homo sapiens; Renal Cancer 786-0; single dose 10^−5 M
[20] = test system: A498; assay: NCI single-dose growth inhibition screen; type: cell-based, human; settings: single dose 10^−5 M; for inhibition at 10 µM: Homo sapiens, A498, Renal Cancer A498
[21] = test system: ACHN; assay: NCI single-dose growth inhibition screen; type: cell-based; settings: Homo sapiens; Renal Cancer ACHN; single dose 10^−5 M
[22] = test system: CAKI-1; assay: NCI single-dose growth inhibition screen; type: cell-based; settings: Homo sapiens; Renal Cancer CAKI-1; single dose 10^−5 M
[23] = test system: SN12C; assay: NCI single-dose growth inhibition screen; type: cell-based; settings: Homo sapiens; Renal Cancer SN12C; single dose 10^−5 M
[24] = test system: TK-10; assay: NCI single-dose growth inhibition screen; type: cell-based; settings: Homo sapiens; Renal Cancer TK-10; single dose 10^−5 M
[25] = test system: MCF7; assay: NCI single-dose growth inhibition screen; type: cell-based, human; settings: single dose 10^−5 M; for Growth Inhibition (%): Breast Cancer MCF7; for inhibition at 10 µM: Homo sapiens, MCF7, Breast Cancer MCF7
[26] = test system: MDA-MB231; assay: NCI single-dose growth inhibition screen; type: cell-based; settings: Homo sapiens, MDA-MB-231; Breast Cancer MDA-MB231; single dose 10^−5 M
[27] = test system: HS 578T; assay: NCI single-dose growth inhibition screen; type: cell-based; settings: Homo sapiens; Breast Cancer HS 578T; single dose 10^−5 M
[28] = test system: BT-549; assay: NCI single-dose growth inhibition screen; type: cell-based; settings: Homo sapiens; Breast Cancer BT-549; single dose 10^−5 M
[29] = test system: T-47D; assay: NCI single-dose growth inhibition screen; type: cell-based; settings: Homo sapiens, T47D; Breast Cancer T-47D; single dose 10^−5 M
[30] = test system: PC-3; assay: NCI single-dose growth inhibition screen; type: cell-based; settings: Homo sapiens; Prostate Cancer PC-3; single dose 10^−5 M
[31] = test system: K. pneumoniae ATCC 10,031; assay: Antibacterial screening, agar cup diffusion method; type: cell-based; settings: read-out: Minimum inhibitory concentrations (MIC, µM) K. pneumoniae ATCC 10,031
Description: (§1) Anti-bacterial activity of the recently synthesized compounds 3a-k was evaluated at AUMC (Assiut University Mycological Centre), Assiut, Egypt. Assays were done against Gram-negative strains of K. pneumoniae (ATCC 100310, E. coli (ATCC 25922), Pseudomonas aeruginosa (ATCC 27853) and the Gram-positive S. aureus (ATCC 6538) strain utilizing standard agar cup diffusion method. The isolates from the four bacterial species examined were kept in TSB (Trypticase Soya Broth, Becton and Dickinson) with 10% glycerol at -70 °C and then subcultured on TSA (Trypticase Soya Agar, Becton and Dickinson) and TSB for 24 h at 37 °C former to inoculation. Bacterial isolates were then plated on sterile petri plates with 1 × 10^8 CFU/mL (0.5 McFarland turbidity) and 20 mL of Mueller Hinton Agar media (Oxoid) was then loaded. To ensure that the microorganisms were evenly dispersed, the plates were gently rotated before being left to harden on a level surface. Four equally spaced spherical-shaped wells (10 mm diameter) were painstakingly drilled using a sterilized cork bore after media solidification. All tested compounds under test underwent two-fold serial dilutions in a sequential manner. Three replications of 100 µL of each concentration were added to a well using a micropipette. Plates were then incubated for 24-hour at 37 °C. The average of the inhibition zones was then calculated. To determine the MICs, the natural logarithm of each diluted test substance’s concentration was plotted against the average area of the related inhibition zone. Following that, a regression line was created and the intercept on the ‘ln concentration” axis was determined, and the antilogarithm was calculated to indicate the MIC value[34],[63].

[32] = test system: P. aeruginosa ATCC 27,853; assay: Antibacterial screening, agar cup diffusion method; type: cell-based; settings: Pseudomonas aeruginosa, ATCC27; Gram –ve strain; read-out: Minimum inhibitory concentrations (MIC, µM) P. aeruginosa ATCC 27,853
Description: as §1

[33] = test system: human melanoma LOX IMVI; assay: cells; settings: for IC50: read-out: In vitro cytotoxicity (IC50) LOX IMVI (µM ± SEM)
[34] = Klebsiella pneumoniae, ATCC10, Gram –ve strain

O=C(O)c1cn(C2CC2)c2cc(N3CCN(C(=O)CCCN4C(=O)SC(=Cc5cccc6ccccc56)C4=O)CC3)c(F)cc2c1=O [3j, 1-cyclopropyl-6-fluoro-7-[4-[4-[5-(1-naphthylmethylene)-2,4-dioxo-thiazolidin-3-yl]butanoyl]piperazin-1-yl]-4-oxo-quinoline-3-carboxylic acid]
inhibition at 10 µM [1]: < 0% | inhibition at 10 µM [2]: 17.5% | inhibition at 10 µM [3]: 6.1% | inhibition at 10 µM [4]: 14.1% | inhibition at 10 µM [5]: 9.1% | inhibition at 10 µM [6]: 13.3% | inhibition at 10 µM [7]: 13.1% | inhibition at 10 µM [8]: 3.9% | inhibition at 10 µM [9]: 10.6% | inhibition at 10 µM [10]: 29.1% | inhibition at 10 µM [11]: 9.9% | inhibition at 10 µM [12]: 20.1% | inhibition at 10 µM [13]: 28.4% | inhibition at 10 µM [14]: 38.5% | Growth Inhibition (%) [14]: 38.5% | inhibition at 10 µM [15]: 13.1% | inhibition at 10 µM [16]: 16.7% | inhibition at 10 µM [17]: 20.4% | inhibition at 10 µM [18]: 9% | inhibition at 10 µM [19]: 18.5% | inhibition at 10 µM [20]: 50.9% | Growth Inhibition (%) ([20]; Renal Cancer A498): 50.9% | inhibition at 10 µM [21]: 11.5% | inhibition at 10 µM [22]: 18% | inhibition at 10 µM [23]: 24.1% | inhibition at 10 µM [24]: < 0% | Growth Inhibition (%) [25]: 41.7% | inhibition at 10 µM [25]: 41.7% | inhibition at 10 µM [26]: 25.2% | inhibition at 10 µM [27]: 30.2% | inhibition at 10 µM [28]: 20.5% | inhibition at 10 µM [29]: 7.5% | inhibition at 10 µM [30]: < 0% | MIC [31, 34]: > 20 µM | MIC [32]: > 20 µM | melting point: 219 °C | viability at 0.4 µM [33]: 86.5% | viability at 1.6 µM [33]: 79.4% | viability at 25 µM [33]: 61.5% | viability at 100 µM [33]: 48.5% | IC50 [33]: 110 ± 6.23 µM

O=C(O)c1cn(C2CC2)c2cc(N3CCN(C(=O)CCCN4C(=O)SC(=Cc5cccc([N+](=O)[O-])c5)C4=O)CC3)c(F)cc2c1=O [3d, 1-cyclopropyl-6-fluoro-7-[4-[4-[5-[(3-nitrophenyl)methylene]-2,4-dioxo-thiazolidin-3-yl]butanoyl]piperazin-1-yl]-4-oxoquinoline-3-carboxylic acid]
inhibition at 10 µM [1]: < 0% | inhibition at 10 µM [2]: < 0% | inhibition at 10 µM [3]: < 0% | inhibition at 10 µM [4]: < 0% | inhibition at 10 µM [5]: 2.3% | inhibition at 10 µM [6]: < 0% | inhibition at 10 µM [7]: 7.9% | inhibition at 10 µM [8]: < 0% | inhibition at 10 µM [9]: < 0% | inhibition at 10 µM [10]: 2.4% | inhibition at 10 µM [11]: 9.5% | inhibition at 10 µM [12]: 1% | inhibition at 10 µM [13]: 18.2% | inhibition at 10 µM [14]: 26.5% | inhibition at 10 µM [15]: 9.8% | inhibition at 10 µM [16]: 0.8% | inhibition at 10 µM [17]: 10.3% | inhibition at 10 µM [18]: 3.1% | inhibition at 10 µM [19]: 8.5% | inhibition at 10 µM [20]: 8.9% | inhibition at 10 µM [21]: 4.2% | inhibition at 10 µM [22]: 5% | inhibition at 10 µM [23]: 3.7% | inhibition at 10 µM [24]: < 0% | inhibition at 10 µM [25]: 1.9% | inhibition at 10 µM [26]: 8% | inhibition at 10 µM [27]: 8.2% | inhibition at 10 µM [28]: 3% | inhibition at 10 µM [29]: < 0% | inhibition at 10 µM [30]: < 0% | MIC ([31]; Gram –ve strain): 0.13 µM (≈ 0.0845 µg/mL) | MIC [31, 34]: 0.13 to 0.8 µM (≈ 0.0845 to 0.52 µg/mL) | MIC [32]: 0.87 µM (≈ 0.565 µg/mL) | melting point: 263 °C

O=C(O)c1cn(C2CC2)c2cc(N3CCN(C(=O)CCCN4C(=O)SC(=Cc5ccccc5)C4=O)CC3)c(F)cc2c1=O [3a, 7-[4-[4-[5-benzylidene-2,4-dioxo-thiazolidin-3-yl]butanoyl]piperazin-1-yl]-1-cyclopropyl-6-fluoro-4-oxo-quinoline-3-carboxylic acid]
inhibition at 10 µM [1]: 9.8% | inhibition at 10 µM [2]: 12.6% | inhibition at 10 µM [3]: 11.4% | inhibition at 10 µM [4]: 29.9% | inhibition at 10 µM [5]: < 0% | inhibition at 10 µM [6]: < 0% | inhibition at 10 µM [7]: 10.2% | inhibition at 10 µM [8]: 3.7% | inhibition at 10 µM [9]: 19.3% | inhibition at 10 µM [10]: 12.4% | inhibition at 10 µM [11]: 8.9% | inhibition at 10 µM [12]: 9.8% | inhibition at 10 µM [13]: 29.1% | inhibition at 10 µM [14]: 41.4% | Growth Inhibition (%) [14]: 53.25% and 53.3% | inhibition at 10 µM [15]: 30.4% | inhibition at 10 µM [16]: 8.2% | inhibition at 10 µM [17]: 28.6% | inhibition at 10 µM [18]: 15.4% | inhibition at 10 µM [19]: 21.2% | inhibition at 10 µM [20]: 41.4% | inhibition at 10 µM [21]: 14.5% | inhibition at 10 µM [22]: 10.9% | inhibition at 10 µM [23]: 2.6% | inhibition at 10 µM [24]: < 0% | Growth Inhibition (%) [25]: 55.9% | inhibition at 10 µM [25]: 55.9% | inhibition at 10 µM [26]: 25.2% | inhibition at 10 µM [27]: 8.8% | inhibition at 10 µM [28]: 7.3% | inhibition at 10 µM [29]: 8.1% | inhibition at 10 µM [30]: < 0% | MIC ([31]; Gram –ve strain): 0.22 µM (≈ 0.133 µg/mL) | MIC [31, 34]: 0.13 to 0.8 µM (≈ 0.0786 to 0.484 µg/mL) | MIC [32]: > 20 µM | melting point: 238 °C | viability at 0.4 µM [33]: 77.9% | viability at 1.6 µM [33]: 69.2% | viability at 25 µM [33]: 48.8% | viability at 100 µM [33]: 40.4% | IC50 [33]: 26.7 ± 1.5 µM
